Results from US20100120701A1, “Compositions and Methods For Engineering Probiotic Yeast” (Glycosyn, Inc., priority 2008, published 2010).

B1: UEA I: ligand (lectin) that binds to H-2 (protein, UniProt P22972 1-243, looked up)
Anti-H(O) lectin 1: SDDLSFKFKNFSQNGKDLSFQGDASVIETGVLQLNKVGNNLPDETGGIARYIAPIHIWNCNTGEVASFITSFSFFMETSANPKAATDGLTFFLAPPDSPLRRAGGYFGLFEDTKDNDSSYQTVAVEFDTIGSPVNFDDPGFPHIGIDVNRVKSINAERWNKRYGLNNVANVEIIYEASSKTLTASLTYPSDQTSISVTSIVDLKEILPEWVSVGFSGGTYIGRQATHEVLNWYFTSNLINTNS

Experiments:
[1] = system: calicivirus diarrhea; assay: Calicivirus diarrhea in breastfed infants by milk oligosaccharide level; assay type: in vivo, human; details: 93 nursing children consuming milk with high amounts; Poisson regression, P=0.012
Experimental: Milk samples were obtained weeks 2-5 postpartum from 93 Mexican mothers; the mothers and infants were followed from birth up to 2 yr postpartum. The clinical histories of the infants were recorded prospectively, and concentrations of individual oligosaccharides in these milk samples were measured. The most common oligosaccharides in maternal milk were those that were fucosylated, comprising 73% (50%-92%) of total oligosaccharide. Of these, 2′FL, the oligosaccharide homolog of the Lewis H-2 epitope, was the most common in the milks of all mothers. The mean concentration of 2′FL in milk was 3854±108 nmol/mL (34% of total fucosylated oligosaccharides), but varied greatly among mothers according to their Lewis blood group type.
Thus, human milk containing high levels of specific oligosaccharides are associated with decreased risk of pathogen-specific diarrhea and diarrhea overall. […] Because both the oligosaccharide and the high-molecular-weight glycans that share the same glycan epitope are synthesized by the same fucosyltransferase, the relationship between the oligosaccharide expression in milk and decreased risk in the infant reflects the synthetic capacity of the mother for both the free oligosaccharide and the homologous glycan. Specific human milk oligosaccharides protect breastfed children from disease by inhibiting binding of pathogens to the child's intestinal receptors.

[2] = system: Campylobacter jejuni; assay: C. jejuni binding to CHO cells transfected with a human α(1,2)-fucosyltransferase gene; assay type: cell-based; details: CHO cells overexpressing H-2 antigen

Row | Molecule | protection against calicivirus diarrhea [1] | inhibition of C. jejuni binding to transfected CHO cells [2]
1 | CC(=O)N[C@H]1[C@H](O[C@H]2[C@@H](O)[C@@H](CO)O[C@@H](O[C@H]3[C@H](O)[C@@H](O)C(O)O[C@@H]3CO)[C@@H]2O)O[C@H](CO)[C@@H](O[C@@H]2O[C@@H](C)[C@@H](O)[C@@H](O)[C@@H]2O)[C@@H]1O[C@@H]1O[C@H](CO)[C@H](O)[C@H](O)[C@H]1O[C@@H]1O[C@@H](C)[C@@H](O)[C@@H](O)[C@@H]1O (some centres unmarked) [LDFH-I] | associated with protection | 
2 | B1 |  | inhibited
